# From US12497460B2, “Anti-MSR1 antibodies and methods of use thereof” (REGENERON PHARMACEUTICALS, INC., priority 2018, dated 2025)
# Counter-ions that a name gives are not always drawn. Like-named read-outs stand apart in the source and are kept apart here. Marks after values point to notes of the source that are not given here.
# Experiments:
# [1] = system: Msr1^hu/hu ApoE^−/− mice, peritoneal macrophages; test: LPS-mediated expression of CD80 on peritoneal macrophages (flow cytometry); assay type: in vivo, mouse; conditions: administered 2 hours before
# Method: (§1) Assay protocol for ex vivo LPS-induced responses. In ex vivo LPS challenge experiments, mice were intraperitoneally administered with 10 μL/g of anti-MSR1 antibody-steroid conjugates (H1H21234N-N297Q-LP13), isotype control steroid conjugate (Isotype control-LP13), unconjugated anti-MSR1 antibody (H1H21234N-N297Q) and isotype control antibodies at different time points (24, 48, and 72 hours) prior to harvesting the peritoneal cells from peritoneal cavity. […] All mice were sacrificed at 0 hour time point and peritoneal cells were obtained from the peritoneum by the peritoneal lavage technique. In brief, 5 mL of ice cold 1×PBS (ThermoFisher Scientific, Cat #20012027) containing 2% BSA (Gibco, Cat #A9576) and 0.6 mM EDTA (ThermoFisher Scientific, Cat #15575020) were injected into the peritoneal cavity using 27 g needle. […] The resuspended cells were plated at 500,000 cells per well in 24-well tissues culture plates and incubated with or without 10 ng/mL of LPS for 18 hours.
# (§2) Assay protocol for in vivo LPS-induced responses. In in vivo LPS challenge experiments, mice were intraperitoneally administered with 10 μL/g of decreasing concentrations of anti-MSR1 antibody-steroid conjugates (H1H21234N-N297Q-LP13) and isotype control steroid conjugate (Isotype control-N297Q-LP13) at 24 hours prior to in vivo LPS challenge. PBS and free steroid P4 were intraperitoneally injected at 2 hours prior to in vivo LPS challenge. At 0 hour time point, three large drops of blood (volume ˜ 100 μL) were collected from the maxillary vein of each mouse into serum gel separator tubes. The tubes were centrifuged at 2200-2500 rpm for 15 minutes, and the serum was collected into 96-well plates for subsequent measurement of cytokines. At 18 hours post in vivo LPS challenge, the peritoneal cells were obtained from periotenal cavity as aforementioned for subsequent flow cytometry analysis.
# Analysis of expression of activation markers on peritoneal macrophages after LPS ex vivo challenge. Upon collection of supernatants for cytokine analysis, the plates were washed twice with 1×PBS w/o Ca^++/Mg2^++ (ThermoFisher Scientific, Cat #14190144), and the adherent peritoneal cells were harvested by addition of 250-300 μL of cold Macrophage Detachment Solution DXF (PromoCell, Cat #C41330) for 40 minutes. The detached cells were collected into 50-mL tubes and centrifuged at 350×g for 15 minutes. After two washes with 1×PBS supplemented with 2 mM EDTA, the cells were resuspended in Cell Staining Buffer (Biolegend, #420201) and plated at 1×10^6 cells per well in a 96-well V bottom plate. […] Data were analyzed using FlowJo (Tree Star).
# Msr1^hu/hu ApoE^−/− mice = test: In vivo LPS-induced cytokine production in serum; design: species or system mouse; conditions: 1.48 mg/kg, 2 hours before in vivo LPS
# Method: (§3) To examine the anti-inflammatory effect of the anti-MSR1 antibody-steroid conjugates, an ex-vivo and in vivo LPS-induced inflammatory immune response model was performed.
# (§4) Generation of a mouse inflammatory immune response model. Mice homozygously expressing human MSR1 extracellular domain in place of the mouse MSR1 extracellular domain and with a homozygous deletion of the ApoE gene were utilized (resulting mice referred to as Msr1^hu/hu ApoE^−/− mice).
# as §2
# [2] = system: Msr1^hu/hu ApoE^−/− mice, peritoneal cells; test: Ex vivo LPS-induced cytokine production by peritoneal cells after in vivo dosing; design: species or system mouse
# Method: as §3, §4, §1
# Measurement of cytokines at 18 hours post-LPS ex vivo challenge. Supernatants were collected into 96-well round bottom tissue culture plates at 18 hours post-ex vivo LPS challenge and stored at […] until further analysis. Cytokine concentrations in the supernatants were measured using a Proinflammatory Panel 1 (mouse) multiplex immunoassay kit (MesoScale Diagnostics, Cat #K15048D) according to manufacturer's instructions. Electrochemiluminescence was read on a Meso Scale Diagnostics SECTOR® instrument. Data analysis was performed using GraphPad Prism™ software. Statistical significance within the groups was determined by one-way Anova with Turkey's multiple comparison post-test (*p<0.01; **p<0.001; ***p<0.0001).
# [3] = system: LPS-induced IL-1β release in differentiated THP-1 cells; test: LPS-mediated IL-1β release assay; assay type: cell-based, human; conditions: for IC50: Homo sapiens
# Method: To test the anti-inflammatory properties of anti-MSR1 antibody-steroid conjugates in vitro, a lipopolysaccharide (LPS)-mediated IL-1β release assay was performed. For the assay, THP-1 cells were seeded onto 96 well plates at 40,000 cells/well in media containing RPMI supplemented with 10% FBS and pencillin/streptomycinin and differentiated with 200 nM Phorbol Myristate Acetate (PMA) for 3 days. After the 3-day differentiation period, three-fold serial dilutions of antibody drug conjugates, unconjugated antibodies, or free payloads in fresh media were added to the cells at final concentration ranging from 100 nM to 0.01 nM. Media alone served as a blank control. Subsequently at 24, 48, or 72 hours later, cells were treated with 100 ng/ml LPS (InVivoGen, Cat #tlrl-eklps) for 5 hours. The cell media was then collected, and IL-1β levels were measured using a V-PLEX Proinflammatory Panel 1 human kit (Meso Scale Diagnostics, Cat #15049D-2) as per manufacturer's instructions. Subsequently, the plate was read on a Meso Scale Diagnostics instrument.
# IC50 values were determined from a four-parameter logistic equation over a 10-point response curve (GraphPad Prism). All IC50 values are expressed in M (molar) concentration. The IC50 values and IL-1β amount at the maximum concentration of antibody-steroid conjugates or controls are shown in Table 22 each of the time point tested.
# LXR (THP1/LXR-Luc cells) = test: LXR-luciferase reporter bioassay (Example 31); assay type: cell-based, human; conditions: signal to noise, ratio of RLU of standard one over standard eight; 48 hours
# Source text: Generation of assay cell line. To test the efficacy of anti-MSR1 antibody-LXR conjugates in vitro, a cell-based LXR responsive luciferase reporter assay was developed. To generate the assay cell line, a LXR regulated luciferase reporter gene [Cignal Lenti LXR Reporter (luc) kit (Qiagen, Cat #CLS-001 L)] was transduced into THP1 cells, and cells were selected for two weeks in puromycin. The lentivirus expresses the firefly luciferase gene under the control of a minimal CMV promoter and tandem repeats of the LXR transcriptional response element. The resulting cell line is referred to as THP1/LXR-Luc cells.
# Assay protocol. THP1/LXR-Luc cells were seeded onto 96 well plates at 40,000 cells/well in media containing RPMI supplemented with 10% FBS and pencillin/streptomycin and subsequently differentiated with 200 nM Phorbol Myristate Acetate (PMA) for 3 days. After the 3-day differentiation period, three-fold serial dilutions of antibody drug conjugates, unconjugated antibodies, or free payloads in fresh media were added to the cells at final concentration ranging from 100 nM to 0.01 nM. Media alone served as a blank control. Forty-eight hours later, luciferase activity was determined after the addition of One-Glo™ reagent (Promega, Cat #E6130) to each well. Relative light units (RLUs) were measured on a Victor luminometer (PerkinElmer) and EC50 values were determined using a four-parameter logistic equation over a 10-point dose response curve (GraphPad Prism). The signal to noise (S/N) was determined by calculating the ratio of RLU of standard one over RLU of standard eight for each of the unconjugated anti-MSR1 antibodies or free payloads. “LP #” represents a linker-payload for which the corresponding structures are provided elsewhere herein, and “P #” represents a payload for which the corresponding structures are provided elsewhere herein.
# [4] = administered 2 hours before peritoneal cell isolation, ex vivo LPS
smiles,measurement,setting,value
"CCCC1O[C@@H]2C[C@H]3[C@@H]4C[C@H](F)C5=CC(=O)C=C[C@]5(C)[C@@]4(F)[C@@H](O)C[C@]3(C)[C@]2(C(=O)CN)O1 (mixture of isomers) [P4, (1S,2S,4R,6R,8S,9S,11S,12R,13S,19S)-8-(2-Aminoacetyl)-12,19-difluoro-11-hydroxy-9,13-dimethyl-6-propyl-5,7-dioxapentacyclo[10.8.0.0^2,9.0^4,8.0^13,18]icosa-14,17-dien-16-one]","LPS-mediated expression of CD80, pMΦ Cells",[1]; hMSR1+F4/80+CD11b+ peritoneal macrophages,54.7 ± 3.8 % relative to PBS/LPS-treatment
same,"LPS-mediated expression of CD80, non-pMΦ Cells",[1]; hMSR1−F4/80−CD11b− cells,93.02 ± 4.4 % relative to PBS/LPS-treatment
same,Cytokine IL-6 in serum,Msr1^hu/hu ApoE^−/− mice,3.51 ± 0.7 ng/mL
same,Cytokine KC-GRO in serum,Msr1^hu/hu ApoE^−/− mice,4.1 ± 1.5 ng/mL
same,Cytokine TNF-α in serum,Msr1^hu/hu ApoE^−/− mice,0.09 ± 0.02 ng/mL
same,Cytokine IL-6,[2]; [4],12.98 ± 5.8**** ng/mL
same,Cytokine KC-GRO,[2]; [4],2.6 ± 1.3** ng/mL
same,Cytokine TNF-α,[2]; [4],0.43 ± 0.06** ng/mL
same,"effect on ex vivo LPS-induced cytokine production (IL-6, KC-GRO, TNF-α) by peritoneal cells","[2]; i.p. dosing 24, 48, 72 hours (conjugates, antibodies) or 2 hours (free steroids) before cell harvest, 10 ng/mL LPS 18 hours",Comparable inhibition of LPS-induced immune responses
same,IL1beta released at max concentration tested,[3]; 24 hour treatment before LPS,43.39 pg/mL
same,IL1beta released at max concentration tested,[3]; 48 hour treatment before LPS,9.3 pg/mL
same,IL1beta released at max concentration tested,[3]; 72 hour treatment before LPS,12.95 pg/mL
same,IC50,"[3]; THP-1, 24-hour time point, 100 ng/ml LPS for 5 hours, read-out: IC50, inhibition of LPS-induced IL-1β secretion",0.849 nM
same,IC50,"[3]; THP-1, 48-hour time point, 100 ng/ml LPS for 5 hours, read-out: IC50, inhibition of LPS-induced IL-1β secretion",1.02 nM
same,IC50,"[3]; THP-1, 72-hour time point, 100 ng/ml LPS for 5 hours, read-out: IC50, inhibition of LPS-induced IL-1β secretion",1.2 nM
same,IC50,"[3]; THP-1, 24 hour treatment before LPS, read-out: EC50 (the source's name)",0.849 nM
same,IC50,"[3]; THP-1, 48 hour treatment before LPS, read-out: EC50 (the source's name)",1.02 nM
same,IC50,"[3]; THP-1, 72 hour treatment before LPS, read-out: EC50 (the source's name)",1.2 nM
"C[C@]1(C(=O)NC(=O)[C@@]2(C)CCC[C@]3(C)c4cc(NC(=O)[C@@H](N)CO)ccc4CC[C@@H]23)CCC[C@]2(C)c3cc(O)ccc3CC[C@@H]12 [P5, (1S,4aS,10aR)-6-((S)-2-Amino-3-hydroxypropanamido)-N-((1S,4aS,10aR)-6-hydroxy-1,4a-dimethyl-1,2,3,4,4a,9,10,10a-octahydrophenanthrene-1-carbonyl)-1,4a-dimethyl-1,2,3,4,4a,9,10,10a-octahydrophenanthrene-1-carboxamide]",S/N,LXR (THP1/LXR-Luc cells),5.7
"C[C@]1(C(=O)NC(=O)[C@@]2(C)CCC[C@]3(C)c4cc(NC(=O)[C@@H](N)CCC(=O)O)ccc4CC[C@@H]23)CCC[C@]2(C)c3cc(O)ccc3CC[C@@H]12 [P6, (4S)-4-Amino-4-{[(4bS,8S,8aR)-8-{[(1S,4aS,10aR)-6-hydroxy-1,4a-dimethyl-1,2,3,4,4a,9,10,10a-octahydrophenanthrene-1-carbonyl]carbamoyl}-4b,8-dimethyl-4b,5,6,7,8,8a,9,10-octahydrophenanthren-3-yl]carbamoyl}butanoic acid; trifluoroacetic acid salt]",S/N,LXR (THP1/LXR-Luc cells),8.3
"C[C@]1(C(=O)NC(=O)[C@@]2(C)CCC[C@]3(C)c4cc(NC(=O)[C@@H](N)CCCCN)ccc4CC[C@@H]23)CCC[C@]2(C)c3cc(O)ccc3CC[C@@H]12 [P7, (1S,4aS,10aR)-N-[(1S,4aS,10aR)-6-Hydroxy-1,4a-dimethyl-1,2,3,4,4a,9,10,10a-octahydrophenanthrene-1-carbonyl]-6-[(2S)-2,6-diaminohexanamido]-1,4a-dimethyl-1,2,3,4,4a,9,10,10a-octahydrophenanthrene-1-carboxamide; trifluoroacetic acid salt]",S/N,LXR (THP1/LXR-Luc cells),8.9
